Measured values taken from paper PMC13095444, “Discovery of RGS2-FBXO44 interaction inhibitors using a cell-based NanoBit assay” (Molecular Pharmacology, 2025).

Key:
[1] = tested on: HEK-293T-RGS2-FBXO44 NanoBit cells; test: Cell viability assay (GF-AFC fluorescence) multiplexed with NanoBit; format: cell-based, Human; conditions: 100 μM, 16–18 hours, fresh powder
Protocol: The cells were plated in DMEM without phenol red (Gibco, #21063), 0.1% BSA in a white, tissue culture-treated 384-well plate (Perkin Elmer) at 15,000 cells/well, unless indicated otherwise, and allowed to attach. The plate was centrifuged at 212 × g for 30 seconds to aid in even cell adherence. Compound treatments were initiated 4–5 hours after plating. Following indicated treatment times, media was removed from the plate using BioTek ELx405 plate washer. Additionally, 10 μL of Hank’s Balanced Salt solution (HBSS) with 0.1% BSA was added to each well, followed by 5 μL of glycyl-phenylalanyl-aminofluorocoumarin (GF-AFC; MP Biomedicals) diluted 1:1000 in 100 mM HEPES. Plates were then centrifuged at 212 × g for 30 seconds and then incubated at 37 °C for 30 minutes. Fluorescence was detected on a Synergy Neo2 multimode plate reader (BioTek/Agilent).
Our primary assay using the HEK-293T RGS2-FBXO44 NanoBit cell line was extensively optimized to ensure maximum quality for screening. Coupling a fluorescent cell viability assay with our screen would allow us to rule out cytotoxic compounds while also hopefully reducing outliers from pipetting errors while plating cells. Thus, we multiplexed our NanoBit assay with cell viability using a cell-permeable fluorogenic protease substrate (glycyl-phenylalanyl-aminofluorocoumarin; GF-AFC; [Niles et al, 2007]), which can be combined with a luminescent readout without interfering with the luciferase signal. We previously utilized a similar multiplexing strategy in several screens ([Sjögren et al, 2012]; [Raveh et al, 2014]; [Sjögren et al, 2015]). We assessed and optimized treatment conditions (time, temperature, and reagent volume), cell density, buffer composition, and DMSO tolerance. In addition to the supplied proprietary LCS buffer (Promega), we also tested DMEM, 0.1% BSA, PBS, and HBSS (Supplemental Fig. 1A–C). […] The luminescent signal was stable up to 45 minutes after reagent addition, and we chose to run subsequent assays using 20 minutes of incubation time (Supplemental Fig. 1E). We also observed no effect on either viability or luminescence signal at DMSO concentrations <1% (Data not shown).
HEK-293T-RGS2-FBXO44 NanoBit cells were treated for 16–18 hours with compound at 100 μM. This relatively high concentration was chosen because of the challenging nature of our assay (intracellular PPI inhibition). Parental HEK-293T cells were used as a negative control. […] Based on these criteria, 97 compounds were identified as hits from our primary screen (6.1% initial hit rate). To confirm hits, the same assay was repeated in triplicate, which delivered 34 compounds that reached the threshold for inhibition in at least 2 replicates with <25% cell toxicity (Fig. 2C; Supplemental Table 1), thus rendering a final hit rate of 2.1%.

RGS2 protein levels = test: PathHunter ProLabel assay of RGS2 protein levels in HEK-293T-RGS2-PL cells; format: cell-based, Human; conditions: for RGS2 protein levels (PathHunter ProLabel): 100 μM compound overnight (16–18 hours)
Protocol: The PathHunter ProLabel assay was run as described previously ([Sjögren et al, 2012]; [Raveh et al, 2014]; [Sjögren et al, 2015]). Briefly, HEK-293T-RGS2-PL cells were plated at 10,000 cells per well in a white, tissue culture-treated 384-well plate (Perkin Elmer) in DMEM without phenol red (#21063; Gibco) and 0.1% BSA. The cells were allowed to attach for 4 hours, followed by treatment with DMSO, 10 μM MG-132, or 100 μM of compounds. Prior to the detection of RGS2 protein levels by the ProLabel assay, a fluorescent viability assay was performed in the same well, as described above. PathHunter ProLabel reagents (DiscoveRx) were prepared according to the manufacturer’s directions and added to the plate, followed by incubation at room temperature for 1 hour. Luminescence corresponding to RGS2-PL protein levels was detected using a Synergy Neo2 multimode plate reader.
Compounds that inhibit the interaction between RGS2 and FBXO44 would protect RGS2 from proteasomal degradation and result in increased RGS2 protein levels. We therefore next assayed our 20 hits for their ability to increase RGS2 protein levels. We first performed western blot analysis of HEK-293T cells transfected with RGS2-HA and FLAG-FBXO44 and treated overnight (16–18 hours) with 100 μM compound, using proteasome inhibitor MG-132 as a positive control (10 μM). […] Although somewhat disappointing, given the limited sensitivity of western blot, we opted to also test the compounds using an alternate assay paradigm. Specifically, we used the PathHunter ProLabel assay (DiscoveRx), an enzyme complementation assay in which a protein of interest is tagged with a 4 kDa part of β-galactosidase (ProLabel; PL). The chemiluminescent signal in the assay correlates with relative levels of the PL-tagged target protein. We previously developed a stable HEK-293T-RGS2-PL cell line that was used in several high-throughput screening campaigns ([Sjögren et al, 2012]; [Raveh et al, 2014]; [Sjögren et al, 2015]). The PathHunter ProLabel assay offers a more quantitative measurement of protein levels, with a larger dynamic range than a western blot. We treated HEK-293T-RGS2-PL cells overnight (16–18 hours) with 100 μM compound and used 10 μM MG-132 as a positive control.
As a further validation of the action of compound 10, we assessed whether the ability to increase RGS2 protein levels was dependent on FBXO44 using the PathHunter ProLabel assay. HEK-293T-RGS2-PL cells transfected with either nontargeting (NT) or FBXO44-targeting siRNA were treated overnight (16–18 hours) with vehicle or compound 10 (100 μM). […] Thus, compound 10 increases RGS2 protein levels through a mechanism that is dependent on FBXO44.

CCC1CCCCN1S(=O)(=O)c1cc(Br)ccc1OC (stereo not shown) [Compound 10]
Viability (% of Control) [1]: 69.3∗∗∗∗ % of Control
RGS2 protein levels (PathHunter ProLabel) (RGS2 protein levels): significantly increased RGS2 protein levels
RGS2 protein levels (PathHunter ProLabel) (RGS2 protein levels; listed as compound 10): significantly increased
Ability to increase RGS2 protein levels after siRNA-mediated FBXO44 knockdown (PathHunter ProLabel) (RGS2 protein levels; 100 μM overnight, FBXO44-targeting vs nontargeting siRNA): diminished ability
